Results as given in PMC5302928, “[^64Cu]XYIMSR-06: A dual-motif CAIX ligand for PET imaging of clear cell renal cell carcinoma” (Oncotarget, 2016).
Values joined by “and” are separate entries in the source; they are usually repeats but may differ in a detail not shown here. Equal values may be shown once.

Test system: CAIX-expressing SK-RC-52 ccRCC tumor xenografts
Assay: Biodistribution of [^64Cu]XYIMSR-06 in mice bearing SK-RC-52 xenografts
Format: in vivo
Description: Animal experiments were performed in accordance with protocols approved by the Johns Hopkins Animal Care and Use Committee (ACUC). Six-week-old female NOD/SCID mice were purchased from the Animal Resource Core of the Sidney Kimmel Comprehensive Cancer Center of Johns Hopkins and were subcutaneously injected in the upper right flank with 1 × 10^6 SK-RC-52 cells in RPMI 1640 GlutaMAX™ media (Life Technologies, Frederick, MD) supplemented with 1% fetal bovine serum (FBS). Mice were monitored for tumor size and used for PET/CT imaging when the size of the tumor reached 100 mm^3.
Mice bearing SK-RC-52 xenografts within the upper right flank were injected intravenously with 740 kBq (20 μCi) of [^64Cu]XYIMSR-06 in 200 μL of PBS. For in vivo competition (binding specificity) studies, tumor-bearing mice were injected with 740 kBq (20 μCi) of [^64Cu]XYIMSR-06 and 200 nmole of 1 in 200 μL of PBS concurrently. At specific times after injection (1 h, 4 h, 8 h and 24 h), mice (n = 5) were sacrificed by cervical dislocation with blood immediately collected by cardiac puncture. Heart, lungs, pancreas, spleen, fat, brain, muscle, small intestines, liver, stomach, kidney, urinary bladder, and tumor were also collected. Each organ was weighed and the tissue radioactivity was measured with an automated gamma counter (1282 Compugamma CS, Pharmacia/ LKBNuclear, Inc., Mt. Waverly, Vic. Australia). The percentage of injected dose per gram of tissue (%ID/g) was calculated by comparison with samples of a standard dilution of the initial dose. All measurements were corrected for radioactive decay. Data are expressed as mean ± standard deviation (SD).

[1] = 8 h+Block (co-injected 200 nmole of 1)

SMILES: CC(CCC(=O)NC(CC(=O)NC(CC(=O)NC(CCCCn1cc(CCCC(=O)Nc2nnc(S(N)(=O)=O)s2)nn1)C(=O)NCCOCCOCCNC(=S)Nc1ccc(CC2CN(CC(=O)O)CCN(CC(=O)[O-])CCN2CC(=O)[O-])cc1)C(=O)O)C(=O)O)(c1ccc(O)cc1)c1ccc(O)cc1.[64Cu+2] (stereo not drawn) [[^64Cu]XYIMSR-06]
- Bladder uptake (1 h): 11.12±6.33 %ID/g
- Blood uptake (1 h): 0.66±0.05 %ID/g
- Brain uptake (1 h): 1.46±2.23 %ID/g
- Fat uptake (1 h): 0.80±0.17 %ID/g
- Heart uptake (1 h): 3.41±0.79 %ID/g
- Kidney (kid) uptake (1 h): 33.65±3.91 %ID/g
- Liver uptake (1 h): 3.25±0.97 %ID/g
- Lung uptake (1 h): 25.52±3.35 %ID/g
- Muscle (mm) uptake (1 h): 1.28±0.27 %ID/g
- Pancreas uptake (1 h): 2.94±0.24 %ID/g
- Sm. intestine uptake (1 h): 7.35±0.78 %ID/g
- Spleen uptake (1 h): 0.36±0.08 %ID/g
- Stomach uptake (1 h): 14.80±2.27 %ID/g
- Tumor uptake (1 h): 14.5 %ID/g and 14.47±2.69 %ID/g
- Tumor/kid (kidney) ratio (1 h): 0.4±0.1
- Tumor/mm (muscle) ratio (1 h): 10.8±3.7
- Bladder uptake (4 h): 17.05±8.86 %ID/g
- Blood uptake (4 h): 0.33±0.06 %ID/g
- Brain uptake (4 h): 0.29±0.06 %ID/g
- Fat uptake (4 h): 0.52±0.29 %ID/g
- Heart uptake (4 h): 1.78±0.33 %ID/g
- Kidney (kid) uptake (4 h): 19.99±2.88 %ID/g
- Liver uptake (4 h): 2.18±0.57 %ID/g
- Lung uptake (4 h): 12.03±1.61 %ID/g
- Muscle (mm) uptake (4 h): 0.70±0.18 %ID/g
- Pancreas uptake (4 h): 1.36±0.19 %ID/g
- Sm. intestine uptake (4 h): 4.15±0.69 %ID/g
- Spleen uptake (4 h): 0.24±0.04 %ID/g
- Stomach uptake (4 h): 8.19±0.97 %ID/g
- Tumor uptake (4 h): 19.3 %ID/g and 19.31±4.51 %ID/g
- Tumor/Blood ratio (4 h): 57.7±9.3
- Tumor/kid (kidney) ratio (4 h): 1.0±0.1
- Tumor/mm (muscle) ratio (4 h): 29.4±9.9
- Bladder uptake (8 h): 7.43±7.72 %ID/g
- Blood uptake (8 h): 0.13±0.02 %ID/g
- Brain uptake (8 h): 0.24±0.06 %ID/g
- Fat uptake (8 h): 0.28±0.27 %ID/g
- Heart uptake (8 h): 0.65±0.10 %ID/g
- Kidney (kid) uptake (8 h): 8.14±1.15 %ID/g
- Liver uptake (8 h): 0.99±0.22 %ID/g
- Lung uptake (8 h): 4.64±0.58 %ID/g
- Muscle (mm) uptake (8 h): 0.21±0.05 %ID/g
- Pancreas uptake (8 h): 0.47±0.21 %ID/g
- Sm. intestine uptake (8 h): 1.98±0.14 %ID/g
- Spleen uptake (8 h): 0.18±0.02 %ID/g
- Stomach uptake (8 h): 4.02±0.53 %ID/g
- Tumor uptake (8 h): 16.74±1.58 %ID/g
- Tumor/Blood ratio (8 h): 129.6±18.8
- Tumor/kid (kidney) ratio (8 h): 2.1 and 2.1 ± 0.3 and 2.1±0.26
- Tumor/mm (muscle) ratio (8 h): 84.3±21.0
- Bladder uptake [1]: 1.45±1.53 %ID/g
- Blood uptake [1]: 0.08±0.01 %ID/g
- Brain uptake [1]: 0.04±0.01 %ID/g
- Fat uptake [1]: 0.05±0.01 %ID/g
- Heart uptake [1]: 0.16±0.03 %ID/g
- Kidney (kid) uptake [1]: 1.82±0.39 %ID/g
- Liver uptake [1]: 0.55±0.08 %ID/g
- Lung uptake [1]: 0.77±0.14 %ID/g
- Muscle (mm) uptake [1]: 0.05±0.02 %ID/g
- Pancreas uptake [1]: 0.14±0.03 %ID/g
